In US11046716B2, “Beta-lactamase inhibitors” (priority 2015, dated 2021):
pIC50: −log10 of the molar value.

Tests used:
[1] = tested on: K. pneumoniae expressing the class A carbapenemase KPC-2 and the class B carbapenemase VIM-4; assay: Broth microdilution MIC assay with meropenem, K. pneumoniae KPC-2 and VIM-4; format: cell-based; settings: Fixed Mero (meropenem) 4 μg/mL; K. p. A-1797 KPC-2 VIM-4
How it was run: (§1)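 Strains grown 3-5 hours in CAMHB are inoculated by the CLSI broth microdilution method onto compound dilutions (16 to 0.125 μg/mL) overlaid with β-lactam at 4 μg/ml final. After 16-20 hours at 37° C, the lowest compound concentration inhibiting growth is taken as the MIC.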

[2] = tested on: P. aeruginosa expressing the Class B carbapenemase VIM-2; assay: Broth microdilution MIC assay with meropenem, P. aeruginosa VIM-2; format: cell-based; settings: Fixed Mero (meropenem) 4 μg/mL; P. aerug. 2775 VIM-2
How it was run: as §1

[3] = tested on: E. coli expressing the Class A Extended Spectrum Beta-Lactamase (ESBL) CTX-M-15; assay: Broth microdilution MIC assay with ceftazidime, E. coli CTX-M-15; format: cell-based; settings: Fixed CAZ (ceftazidime) 4 μg/mL; E. coli ESBL4 CTX-M-15
How it was run: as §1

[4] = target: T1, SHV-5 (Klebsiella pneumoniae, UniProt P0A3M1); assay: β-lactamase enzyme inhibition assay, SHV-5 (cefotaxime substrate); format: biochemical
T1 construct: made in house; host or cells: E. coli BL21(DE3)
How it was run: (§2)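 IC50 is the inhibitor level cutting initial substrate hydrolysis rate by 50% relative to no-inhibitor controls, after 15 min enzyme–inhibitor preincubation at 37 °C. KPC-2 read with imipenem at 300 nm, SHV-5 with cefotaxime at 260 nm; enzymes were untagged, E. coli-expressed, chromatographically purified.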

[5] = tested on: K. pneumoniae expressing the Class A carbapenemase KPC-2; assay: Broth microdilution MIC assay with meropenem, K. pneumoniae KPC-2; format: cell-based; settings: Fixed Mero (meropenem) 4 μg/mL; K. p. 156319 KPC-3
How it was run: as §1

[6] = target: T2, AmpC (Enterobacter cloacae, UniProt P05364); assay: β-lactamase enzyme inhibition assay, p99 AmpC (nitrocefin substrate); format: biochemical
T2 construct: made in house; host or cells: E. coli BL21(DE3)
How it was run: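 IC50 is the inhibitor level cutting initial substrate hydrolysis rate by 50% relative to no-inhibitor controls, after 15 min enzyme–inhibitor preincubation at 37 °C. enzymes were untagged, E. coli-expressed, chromatographically purified.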

[7] = target: T3, VIM-2 (Escherichia coli, UniProt Q5U7L7); assay: β-lactamase enzyme inhibition assay, VIM-2 (nitrocefin substrate); format: biochemical; settings: Class B; nitrocefin substrate, 486 nm; read-out: VIM-2
T3 construct: made in house; host or cells: E. coli BL21(DE3)
How it was run: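 First, VIM-2 purified by repeated anion exchange at pH 7.5 is mixed with inhibitor and held 15 min at 37 °C. Next, nitrocefin (final 100 μM) is dispensed and absorbance at 486 nm monitored immediately for 10 min. Rates versus uninhibited controls give IC50.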

[8] = target: T4, KPC-2 (Klebsiella pneumoniae, UniProt Q9F663); assay: β-lactamase enzyme inhibition assay, KPC-2 (imipenem substrate); format: biochemical; settings: Class A; imipenem substrate, 300 nm; read-out: KPC-2
T4 construct: made in house; host or cells: E. coli BL21(DE3)
How it was run: as §2

[9] = target: OXA-48 (UniProt Q6XEC0); assay: β-lactamase enzyme inhibition assay, Class D oxacillinase; format: biochemical; settings: read-out: OXA-48
[10] = tested on: E. cloacae expressing the Class C P99; assay: Broth microdilution MIC assay with ceftazidime, E. cloacae P99; format: cell-based; settings: Fixed CAZ (ceftazidime) 4 μg/mL; E. cl. 144200 p99 AmpC
How it was run: as §1

[11] = tested on: K. pneumoniae producing the Class D carbapenemase OXA-48; assay: Broth microdilution MIC assay with meropenem, K. pneumoniae OXA-48; format: cell-based; settings: Fixed Mero (meropenem) 4 μg/mL; K. p. 11978 OXA-48
How it was run: as §1

T4 sequence (Q9F663 25-293, looked up): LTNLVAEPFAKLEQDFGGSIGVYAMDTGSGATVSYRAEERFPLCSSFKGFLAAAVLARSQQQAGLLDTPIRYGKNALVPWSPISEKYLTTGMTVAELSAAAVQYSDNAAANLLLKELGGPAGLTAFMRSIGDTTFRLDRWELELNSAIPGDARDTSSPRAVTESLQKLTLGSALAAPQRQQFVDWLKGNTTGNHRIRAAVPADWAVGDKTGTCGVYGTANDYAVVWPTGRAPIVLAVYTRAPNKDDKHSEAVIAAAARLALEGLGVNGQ
T1 sequence (P0A3M1 22-286): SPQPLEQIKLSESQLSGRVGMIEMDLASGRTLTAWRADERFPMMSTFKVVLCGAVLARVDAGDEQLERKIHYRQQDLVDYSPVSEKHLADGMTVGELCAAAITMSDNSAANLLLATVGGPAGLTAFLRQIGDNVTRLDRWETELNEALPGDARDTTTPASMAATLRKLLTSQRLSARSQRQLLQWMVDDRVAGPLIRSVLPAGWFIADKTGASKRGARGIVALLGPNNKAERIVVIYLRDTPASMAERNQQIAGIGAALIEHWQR
T2 sequence (P05364 21-381): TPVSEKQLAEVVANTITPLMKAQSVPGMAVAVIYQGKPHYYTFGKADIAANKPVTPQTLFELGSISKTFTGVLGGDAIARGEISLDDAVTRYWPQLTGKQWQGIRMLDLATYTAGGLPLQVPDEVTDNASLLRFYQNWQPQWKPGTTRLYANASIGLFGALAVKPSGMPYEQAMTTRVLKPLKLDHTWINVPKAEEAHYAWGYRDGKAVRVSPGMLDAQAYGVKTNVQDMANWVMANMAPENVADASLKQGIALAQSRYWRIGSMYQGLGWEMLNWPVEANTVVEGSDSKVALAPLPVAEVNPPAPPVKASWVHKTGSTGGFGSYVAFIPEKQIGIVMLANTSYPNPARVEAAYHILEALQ

SMILES	MIC (μg/mL) of Exemplary Compounds in presence of fixed β-lactams: K. p. A-1797 KPC-2 VIM-4 [1]	MIC (μg/mL) of Exemplary Compounds in presence of fixed β-lactams: P. aerug. 2775 VIM-2 [2]	MIC (μg/mL) of Exemplary Compounds in presence of fixed β-lactams: E. coli ESBL4 CTX-M-15 [3]	pIC50 [4]	MIC (μg/mL) of Exemplary Compounds in presence of fixed β-lactams: K. p. 156319 KPC-3 [5]	pIC50 [6]	pIC50 [7]	pIC50 [8]	pIC50 [9]	MIC (μg/mL) of Exemplary Compounds in presence of fixed β-lactams: E. cl. 144200 p99 AmpC [10]	MIC (μg/mL) of Exemplary Compounds in presence of fixed β-lactams: K. p. 11978 OXA-48 [11]
Nc1nnc(CC(=O)N[C@H]2Cc3cccc(C(=O)O)c3OB2O)[nH]1 [Example 20, (R)-3-(2-(5-amino-4H-1,2,4-triazol-3-yl)acetamido)-2-hydroxy-3,4-dihydro-2H-benzo[e][1,2]oxaborinine-8-carboxylic acid]	B (B represents an MIC between 1 and 16 μg/mL inclusive)	B (B represents an MIC between 1 and 16 μg/mL inclusive)	C (C represents an MIC of <1 μg/mL)	> 7.00	B (B represents an MIC between 1 and 16 μg/mL inclusive)	6.00 to 7.00	6.00 to 7.00	> 7.00	6.00 to 7.00	C (C represents an MIC of <1 μg/mL)	B (B represents an MIC between 1 and 16 μg/mL inclusive)
O=C(Cn1cc(CNCCO)nn1)N[C@H]1Cc2cccc(C(=O)O)c2OB1O [Example 21, (R)-2-hydroxy-3-(2-(4-(((2-hydroxyethyl)amino)methyl)-1H-1,2,3-triazol-1-yl)acetamido)-3,4-dihydro-2H-benzo[e][1,2]oxaborinine-8-carboxylic acid]	B (B represents an MIC between 1 and 16 μg/mL inclusive)	B (B represents an MIC between 1 and 16 μg/mL inclusive)	C (C represents an MIC of <1 μg/mL)	> 7.00	B (B represents an MIC between 1 and 16 μg/mL inclusive)	> 7.00	> 7.00	> 7.00	6.00 to 7.00	C (C represents an MIC of <1 μg/mL)	B (B represents an MIC between 1 and 16 μg/mL inclusive)
N=CNCc1cn(CC(=O)N[C@H]2Cc3cccc(C(=O)O)c3OB2O)nn1 [Example 22, (R)-3-(2-(4-(formimidamidomethyl)-1H-1,2,3-triazol-1-yl)acetamido)-2-hydroxy-3,4-dihydro-2H-benzo[e][1,2]oxaborinine-8-carboxylic acid]	B (B represents an MIC between 1 and 16 μg/mL inclusive)	C (C represents an MIC of <1 μg/mL)	C (C represents an MIC of <1 μg/mL)	6.00 to 7.00	C (C represents an MIC of <1 μg/mL)	> 7.00	6.00 to 7.00	6.00 to 7.00	5.00 to 6.00	C (C represents an MIC of <1 μg/mL)	B (B represents an MIC between 1 and 16 μg/mL inclusive)
NCc1nnc(CC(=O)N[C@H]2Cc3cccc(C(=O)O)c3OB2O)[nH]1 [Example 23, (R)-3-(2-(5-(aminomethyl)-4H-1,2,4-triazol-3-yl)acetamido)-2-hydroxy-3,4-dihydro-2H-benzo[e][1,2]oxaborinine-8-carboxylic acid]	B (B represents an MIC between 1 and 16 μg/mL inclusive)	C (C represents an MIC of <1 μg/mL)	C (C represents an MIC of <1 μg/mL)	> 7.00	C (C represents an MIC of <1 μg/mL)	> 7.00	6.00 to 7.00	> 7.00	6.00 to 7.00	C (C represents an MIC of <1 μg/mL)	B (B represents an MIC between 1 and 16 μg/mL inclusive)
N=C(N)NCc1nc(CC(=O)N[C@H]2Cc3cccc(C(=O)O)c3OB2O)cs1 [Example 24, (R)-3-(2-(2-(guanidinomethyl)thiazol-4-yl)acetamido)-2-hydroxy-3,4-dihydro-2H-benzo[e][1,2]oxaborinine-8-carboxylic acid]	B (B represents an MIC between 1 and 16 μg/mL inclusive)	B (B represents an MIC between 1 and 16 μg/mL inclusive)	C (C represents an MIC of <1 μg/mL)	> 7.00	B (B represents an MIC between 1 and 16 μg/mL inclusive)	> 7.00	6.00 to 7.00	> 7.00	6.00 to 7.00	C (C represents an MIC of <1 μg/mL)	B (B represents an MIC between 1 and 16 μg/mL inclusive)
N#Cc1ncn(CC(=O)N[C@H]2Cc3cccc(C(=O)O)c3OB2O)n1 [Example 25, (R)-3-(2-(3-cyano-1H-1,2,4-triazol-1-yl)acetamido)-2-hydroxy-3,4-dihydro-2H-benzo[e][1,2]oxaborinine-8-carboxylic acid]	A (A represents an MIC>16 μg/mL)	B (B represents an MIC between 1 and 16 μg/mL inclusive)	C (C represents an MIC of <1 μg/mL)	> 7.00	B (B represents an MIC between 1 and 16 μg/mL inclusive)	> 7.00	6.00 to 7.00	> 7.00	6.00 to 7.00	C (C represents an MIC of <1 μg/mL)	B (B represents an MIC between 1 and 16 μg/mL inclusive)
CNCc1cn(CC(=O)N[C@H]2Cc3cccc(C(=O)O)c3OB2O)nn1 [Example 26, (R)-2-hydroxy-3-(2-(4-((methylamino)methyl)-1H-1,2,3-triazol-1-yl)acetamido)-3,4-dihydro-2H-benzo[e][1,2]oxaborinine-8-carboxylic acid]	C (C represents an MIC of <1 μg/mL)	B (B represents an MIC between 1 and 16 μg/mL inclusive)	C (C represents an MIC of <1 μg/mL)	> 7.00	B (B represents an MIC between 1 and 16 μg/mL inclusive)	> 7.00	> 7.00	6.00 to 7.00	6.00 to 7.00	C (C represents an MIC of <1 μg/mL)	B (B represents an MIC between 1 and 16 μg/mL inclusive)
